One experiment concerns the target T1, human SCD1 (Homo sapiens, UniProt O00767).
T1 construct: expressed in transfected cells; host or cells: yeast strain with OLE1 deleted, plasmid-borne human SCD1 (selected in SD-Ura)
T1 sequence (O00767 1-359): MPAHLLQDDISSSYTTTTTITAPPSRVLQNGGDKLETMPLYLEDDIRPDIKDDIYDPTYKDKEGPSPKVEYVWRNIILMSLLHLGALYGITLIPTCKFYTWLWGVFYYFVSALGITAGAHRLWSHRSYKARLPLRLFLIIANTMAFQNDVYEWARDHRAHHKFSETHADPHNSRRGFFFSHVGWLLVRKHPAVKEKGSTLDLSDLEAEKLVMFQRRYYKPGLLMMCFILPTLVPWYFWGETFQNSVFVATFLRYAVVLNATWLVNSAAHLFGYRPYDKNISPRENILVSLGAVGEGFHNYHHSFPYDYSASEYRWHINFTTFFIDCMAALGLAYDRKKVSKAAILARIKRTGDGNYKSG
Kind of experiment: Growth inhibition of yeast strain expressing human SCD1 as sole desaturase (OLE1 deleted), OD600 readout. Type of experiment: cell-based.

A further experiment deals with T2, human SCD5 (Homo sapiens, UniProt Q86SK9).
T2 construct: expressed in transfected cells; host or cells: yeast strain with OLE1 deleted, plasmid-borne human SCD5 (selected in SD-Ura)
T2 sequence (Q86SK9 1-330): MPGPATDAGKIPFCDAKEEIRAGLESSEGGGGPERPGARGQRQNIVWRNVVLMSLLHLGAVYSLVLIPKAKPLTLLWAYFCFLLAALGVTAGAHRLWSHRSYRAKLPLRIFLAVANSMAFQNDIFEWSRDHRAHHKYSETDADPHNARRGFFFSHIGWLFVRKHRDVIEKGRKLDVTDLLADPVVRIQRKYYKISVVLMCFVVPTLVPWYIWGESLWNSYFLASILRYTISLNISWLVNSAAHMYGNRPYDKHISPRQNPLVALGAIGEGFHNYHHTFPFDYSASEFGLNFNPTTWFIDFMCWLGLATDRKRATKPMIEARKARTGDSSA
Kind of experiment: Growth inhibition of yeast strain expressing human SCD5 as sole desaturase (OLE1 deleted), OD600 readout. Type of experiment: cell-based.

Where [1] appears, read: yeast strain expressing human SCD1 as sole desaturase, growth (OD600) after 40 h at 30° C., read-out: SCD1 IC50.
Where [2] appears, read: yeast strain expressing human SCD5 as sole desaturase, growth (OD600) after 40 h at 30° C., read-out: SCD5 IC50.

Read-outs that look alike come from different tables or passages of the source.

What is called IC50 is the concentration needed to halve the response being measured.

Regarding `CN1N=C(C(=O)Nc2ncc(Cc3cc(F)ccc3F)s2)CCC1=O` [Compound 235, N-(5-(2,5-difluorobenzyl)thiazol-2-yl)-1-methyl-6-oxo-1,4,5,6-tetrahydropyridazine-3-carboxamide], the IC50 on human SCD1 (setting [1]) came out at 1880 nM; on human SCD5 (setting [2]), 1770 nM.
Turning to `Cn1nc(C(=O)Nc2ccc(COc3ccc(F)c(F)c3)cn2)ccc1=O` [Compound 664], the IC50 amounted to 31000 nM at human SCD1 (setting [1]) and 900 nM on human SCD5 (setting [2]).
For `Cn1cc(C(=O)Nc2ccc(Cc3cccc(Cl)c3)cn2)cnc1=O` [Compound 652], the IC50 was found to be 1900 nM on human SCD1 (setting [1]) and 86 nM at human SCD5 (setting [2]).
Taken in the same sequence, the figures for `Cc1cc(C(=O)Nc2ccc(Cc3cccc(F)c3)cn2)nn(C)c1=O` [Compound 251] were more than 45000 nM and 150 nM.
Taken in the same sequence, the figures for `O=C(Nc1ncc(Br)cn1)c1ccc(Cc2cccc(F)c2)cn1` [Compound 631] were 650 nM and 2200 nM.
The matching figures for `Cn1nc(C(=O)Nc2ccc(COc3ccc(F)cc3)cn2)ccc1=O` [Compound 599]: more than 45000 nM and 940 nM.
Take `CC(=O)Nc1ccc(/C=C/c2cccc(Cl)c2)nn1` [Compound 394]: the IC50 at human SCD1 (setting [1]) and on human SCD5 (setting [2]) was more than 45000 nM each time.
Take `COc1cc(C(=O)Nc2ccc(Cc3cccc(F)c3)cn2)nn(C)c1=O` [Compound 127, N-(5-(3-fluorobenzyl)pyridin-2-yl)-5-methoxy-1-methyl-6-oxo-1,6-dihydropyridazine-3-carboxamide]: the IC50 at human SCD1 (setting [1]) was 3120 nM; on human SCD5 (setting [2]) it was 220 nM.
On to `Cn1cc(C(=O)Nc2ccc(Cc3cccc(F)c3)cn2)ccc1=O` [Compound 55, N-(5-(3-fluorobenzyl)pyridin-2-yl)-1-methyl-6-oxo-1,6-dihydropyridine-3-carboxamide], for which the IC50 at human SCD1 (SCD1 IC50) came to 1210 nM; on human SCD5 (SCD5 IC50), 160 nM.
Take `COc1ccc(C(=O)Nc2ncc(Cc3cccc(F)c3)s2)nn1` [Compound 404]: the half-maximal inhibitory concentration (IC50) on human SCD1 (setting [1]) and at human SCD5 (setting [2]) was more than 45000 nM throughout.
Take `N#Cc1ccc(C(=O)Nc2ccc(Cc3cccc(F)c3)cn2)cc1` [Compound 133, 4-cyano-N-(5-(3-fluorobenzyl)pyridin-2-yl)benzamide]: the figures for the IC50 on human SCD1 (setting [1]) and at human SCD5 (setting [2]) were more than 45000 nM and 230 nM, respectively.
Taken in the same sequence, the figures for `CCn1cc(C(=O)Nc2ccc(Cc3cccc(Cl)c3)cn2)cn1` [Compound 373] were 300 nM and 30 nM.
The matching figures for `Cn1nc(C(=O)Nc2ccc(Cc3ccc(F)c(Cl)c3)nn2)ccc1=O` [Compound 180, N-(6-(3-chloro-4-fluorobenzyl)pyridazin-3-yl)-1-methyl-6-oxo-1,6-dihydropyridazine-3-carboxamide]: 6020 nM and 910 nM.
Taken in the same sequence, the figures for `Cn1cc(C(=O)Nc2nnc(Cc3ccc(F)cc3)s2)ccc1=O` [Compound 473] were more than 45000 nM and more than 45000 nM.
Turning to `CN1N=C(CNc2ccc(Cc3cccc(F)c3)cn2)CCC1=O` [Compound 397], the IC50 on human SCD1 (setting [1]) and on human SCD5 (setting [2]) was more than 45000 nM throughout.
As to `CC1CC(C(=O)Nc2ccc(Cc3cccc(F)c3)cn2)=NN(C)C1=O` (centres unmarked) [Compound 118, N-(5-(3-fluorobenzyl)pyridin-2-yl)-1,5-dimethyl-6-oxo-1,4,5,6-tetrahydropyridazine-3-carboxamide], the figures for the IC50 on human SCD1 (setting [1]) and at human SCD5 (setting [2]) were more than 45000 nM and 440 nM, respectively.
The matching figures for `N#Cc1ncc(C(=O)Nc2ccc(Cc3cc(F)cc(F)c3)cn2)cc1Cl` [Compound 608]: 910 nM and 27 nM.
The matching figures for `Cc1cc(C(=O)Nc2ccc(Cc3cc(F)cc(F)c3)cn2)cn(C)c1=O` [Compound 676]: 83 nM and 10 nM.
The matching figures for `CC1(C)CN(C(=O)c2ccc(Cc3cccc(F)c3)cn2)CCO1` [Compound 339]: more than 45000 nM and 17700 nM.
Regarding `N#Cc1cnc(C(=O)Nc2ccc(Cc3cc(F)cc(Cl)c3)cn2)cn1` [Compound 661], the IC50 on human SCD1 (setting [1]) came to 180 nM; at human SCD5 (setting [2]), 10 nM.
On to `O=C(Nc1ccc(Cc2ccc(F)c(Cl)c2)cn1)c1ccc(=O)n(C2CC2)n1` [Compound 76, N-(5-(3-chloro-4-fluorobenzyl)pyridin-2-yl)-1-cyclopropyl-6-oxo-1,6-dihydropyridazine-3-carboxamide], for which the IC50 at human SCD1 (setting [1]) and at human SCD5 (setting [2]) was 10 nM throughout.
For `Cn1nc(C(=O)Nc2nc(Cl)c(Cc3cccc(F)c3)s2)ccc1=O` [Compound 232, N-(4-chloro-5-(3-fluorobenzyl)thiazol-2-yl)-1-methyl-6-oxo-1,6-dihydropyridazine-3-carboxamide], the concentration for half-maximal inhibition (IC50) on human SCD1 (setting [1]) came to 140 nM; on human SCD5 (setting [2]), 70 nM.
Taken in the same sequence, the figures for `Cn1nc(C(=O)Nc2ccc(Cc3cc(C#N)ccc3F)cn2)ccc1=O` [Compound 641] were more than 45000 nM and 540 nM.
The matching figures for `CN1N=C(C(=O)Nc2cnn(Cc3cccc(Cl)c3)c2)CCC1=O` [Compound 405]: more than 45000 nM and more than 45000 nM.
The matching figures for `COC(=O)c1ccc(C(=O)Nc2ccc(Cc3cccc(Cl)c3)cn2)nn1` [Compound 454]: 1930 nM and more than 45000 nM.
For the molecule `O=C(Nc1ccc(Nc2cccc(F)c2)cn1)c1ccc(=O)n(C2CC2)n1` [Compound 304], the IC50 on human SCD1 (setting [1]) was more than 45000 nM; at human SCD5 (setting [2]), 2700 nM.
As for `N#Cc1cnc(C(=O)Nc2ccc(Cc3ccc(F)c(C#N)c3)cn2)cn1` [Compound 654], the results for the IC50 at human SCD1 (setting [1]) and at human SCD5 (setting [2]) were 1900 nM and 56 nM, respectively.
The matching figures for `Cn1nc(C(=O)Nc2ccc(Oc3ccc(F)c(Cl)c3)cn2)ccc1=O` [Compound 168, N-[5-(3-chloro-4-fluorophenoxy)pyridin-2-yl]-1-methyl-6-oxo-1,6-dihydropyridazine-3-carboxamide]: more than 45000 nM and 1720 nM.
Taken in the same sequence, the figures for `CN1N=C(C(=O)Nc2ccc(Cc3ccc(Cl)s3)nn2)CCC1=O` [Compound 247] were more than 45000 nM and 2020 nM.
In the case of `CC(C)c1ccc(Cc2ccc(NC(=O)C3=NN(C)C(=O)CC3)nc2)cc1` [Compound 383], the half-inhibitory concentration (IC50) at human SCD1 (setting [1]) and on human SCD5 (setting [2]) was more than 45000 nM throughout.
As to `CCn1cc(C(=O)Nc2ccc(COc3cccc(Cl)c3)cn2)ccc1=O` [Compound 264], the figures for the IC50 at human SCD1 (setting [1]) and at human SCD5 (setting [2]) were more than 45000 nM and 8840 nM, respectively.
Take `COc1ccc(Cc2ccc(NC(=O)c3ccc(=O)n(C)c3)nc2)cc1F` [Example 49, N-(5-(3-fluoro-4-methoxybenzyl)pyridin-2-yl)-1-methyl-6-oxo-1,6-dihydropyridine-3-carboxamide]: the IC50 on human SCD1 (setting [1]) is more than 45000 nM; on human SCD5 (SCD5 IC50), 21200 nM.
With `Cn1nc(C(=O)Nc2ccc(Cc3cc(F)cc(C(F)F)c3)cn2)ccc1=O` [Compound 562], the IC50 on human SCD1 (setting [1]) was 1000 nM; at human SCD5 (setting [2]), 10 nM.
Taken in the same sequence, the figures for `O=C(Nc1ccc(Cc2cccc(F)c2)cn1)c1ccc(=O)n(C(F)F)c1` [Compound 287] were 860 nM and 140 nM.
Taken in the same sequence, the figures for `CN1N=C(C(=O)Nc2ncc(Oc3ccccc3Cl)s2)CCC1=O` [Compound 416] were more than 45000 nM and more than 45000 nM.
In the case of `Cn1cc(NC(=O)c2ccc(Cc3ccc(F)cc3)cn2)ccc1=O` [Compound 496], the figures for the IC50 at human SCD1 (setting [1]) and on human SCD5 (setting [2]) were 222 nM and 10 nM, respectively.
The matching figures for `O=C(Nc1ccc(Cc2cc(F)cc(Cl)c2)cn1)c1cnc(Cl)cn1` [Compound 659]: 350 nM and 55 nM.
Take `CN1C(=O)OC[C@H]1C(=O)Nc1ccc(Cc2cccc(F)c2)cn1` [Compound 458]: the IC50 on human SCD1 (setting [1]) and on human SCD5 (setting [2]) was more than 45000 nM each time.
As for `CN1N=C(C(=O)Nc2nc(Cc3cccc(F)c3)ns2)CCC1=O` [Compound 408], the half-maximal inhibitory concentration (IC50) at human SCD1 (setting [1]) and on human SCD5 (setting [2]) was more than 45000 nM in each case.
As for `CCn1nc(C(=O)Nc2ncc(Cc3cccc(F)c3)s2)ccc1=O` [Compound 227, 1-ethyl-N-(5-(3-fluorobenzyl)thiazol-2-yl)-6-oxo-1,6-dihydropyridazine-3-carboxamide], the IC50 on human SCD1 (setting [1]) was found to be 440 nM; on human SCD5 (setting [2]), 360 nM.
With `O=C(Nc1ccc(Cc2ccc(F)c(Cl)c2)cn1)c1ccc2nncn2c1` [Compound 148, N-(5-(3-chloro-4-fluorobenzyl)pyridin-2-yl)-[1,2,4]triazolo[4,3-a]pyridine-6-carboxamide], the IC50 on human SCD1 (setting [1]) and on human SCD5 (setting [2]) was 10 nM in each case.
As for `O=C(Nc1ccc(Cc2cccc(Cl)c2)cn1)N1CCn2nccc2C1` [Compound 249], the values for the IC50 on human SCD1 (setting [1]) and at human SCD5 (setting [2]) were more than 45000 nM and 6750 nM, respectively.
As to `Cn1nc(C(=O)Nc2ccc(Cc3cccc(F)c3)cc2)ccc1=O` [Compound 4, N-(4-(3-fluorobenzyl)phenyl)-1-methyl-6-oxo-1,6-dihydropyridazine-3-carboxamide], the IC50 at human SCD1 (setting [1]) amounted to 1730 nM; on human SCD5 (setting [2]), 580 nM.

These data come from patent publication US20230078764A1 (Yumanity Therapeutics, Inc., priority 2019, published 2023).
